Reference: patent US20020137929A1, “1 - (3-heterocyclylphenyl) isothiourea, -isourea, -guanidine and -amidine herbicidal agents” (Intellectual Property Department, BASF Aktiengesellschaft, priority 1998, published 2002)

Legend:
ORYSAT (Rice, Tebonnet) = assay: Preemergence herbicidal evaluation; type: in vivo, Oryza sativa, (L.) Tebonnet; conditions: rated 4-5 weeks after treatment; for ORYSAT rating: preemergence, 0-9 scale
Method in brief: (§1)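 Test compound, dissolved in aqueous acetone, was sprayed over planted soil cups at an equivalent of about 0.0156 to 0.500 kg/ha; seeds had been mixed with potting soil. Greenhouse growth followed, with visual 0-9 scoring of injury at four to five weeks.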

ABUTH (Velvetleaf) = assay: Postemergence herbicidal evaluation; type: in vivo, Abutilon theophrasti; conditions: for ABUTH herbicidal rating: postemergence
Method in brief: (§2)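 ~2-wk seedlings; postemergence spray, 40 psi; vehicle 1:1 acetone:water + 0.5% Tween 20; rate ≈0.0156–0.500 kg/ha; greenhouse hold; scored 4–5 wk after treatment, 0–9 scale vs control; repeat tests averaged.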

[1] = system: TRZAWR (Wheat, Winter, cv Riband); assay: Preemergence herbicidal evaluation; type: in vivo, Triticum aestivum; conditions: rated 4-5 weeks after treatment; for TRZAWR rating: preemergence, 0-9 scale
Method in brief: as §1

ECHCG (Barnyardgrass) = assay: Preemergence herbicidal evaluation; type: in vivo, Echinochloa crus-galli; conditions: rated 4-5 weeks after treatment; for ECHCG rating: preemergence, 0-9 scale
Method in brief: as §1

[2] = system: ECHORC (Watergrass (Calif.)); assay: Preemergence weed control under flooded paddy conditions; type: in vivo, Echinochloa oryzoides; conditions: rated 3-4 weeks after treatment
Method in brief: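 Herbicidal effect is scored visually on a 0-9 scale against an untreated control, three to four weeks after compounds are pipetted into the flood water (1.5 to 3 cm deep) over seeds planted in silt loam at 0.5 cm depth. Rates: about 0.0313 to 0.500 kg/ha.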

[3] = system: TRZAWR (Wheat, Winter, cv Riband); assay: Postemergence herbicidal evaluation; type: in vivo, Triticum aestivum; conditions: for TRZAWR herbicidal rating: postemergence
Method in brief: as §2

SETVI (Foxtail, Green) = assay: Preemergence herbicidal evaluation; type: in vivo, Setaria viridis; conditions: rated 4-5 weeks after treatment; for SETVI rating: preemergence, 0-9 scale
Method in brief: as §1

[4] = system: IPOHE (Morningglory, Ivyleaf); assay: Preemergence herbicidal evaluation; type: in vivo, Ipomoea hederacea; conditions: rated 4-5 weeks after treatment; for IPOHE rating: preemergence, 0-9 scale
Method in brief: as §1

[5] = system: ECHORC (Watergrass (Calif.)); assay: Postemergence weed control under flooded paddy conditions; type: in vivo, Echinochloa oryzoides; conditions: postemergence weeds
Method in brief: (§3)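 Flood-water application, about 0.0313–0.500 kg/ha a.i. in aqueous/acetone 50/50 v/v; water depth 1.5–3 cm throughout. Weeds 3–5 cm, rice 1.5–2.5 leaf. Greenhouse; 0–9 visual rating vs control at 3–4 wk.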

[6] = system: IPOHE (Morningglory, Ivyleaf); assay: Postemergence herbicidal evaluation; type: in vivo, Ipomoea hederacea; conditions: for IPOHE herbicidal rating: postemergence
Method in brief: as §2

CYPIR (Rice Flatsedge) = assay: Postemergence weed control under flooded paddy conditions; type: in vivo, Cyperus iria; conditions: postemergence weeds
Method in brief: as §3

[7] = system: CHEAL (Lambsquarters, Common); assay: Preemergence herbicidal evaluation; type: in vivo, Chenopodium album; conditions: rated 4-5 weeks after treatment; for CHEAL rating: preemergence, 0-9 scale
Method in brief: as §1

[8] = rate 0.1250 kg/ha, 3-4 weeks after treatment
[9] = rate 0.2500 kg/ha, 3-4 weeks after treatment
[10] = Rate 0.1250 kg/ha, rated 3 to 4 weeks after treatment
[11] = Rate 0.2500 kg/ha, rated 3 to 4 weeks after treatment
[12] = Rate 0.0625 kg/ha, rated 3 to 4 weeks after treatment

## CCOP(=O)(CN1C(=O)CSC1=Nc1cc(-n2c(=O)cc(C(F)(F)F)n(C)c2=O)c(F)cc1Cl)OCC [Compound 35, Diethyl {{2-{{2-chloro-5-[3,6-dihydro-3-methyl-2,6-dioxo-4-(trifluoromethyl)-1(2H)-pyrimidinyl]-4-fluorophenyl}imino}-4-oxo-3-thiazolidinyl}methyl}phosphonate]
ORYSAT (Rice, Tebonnet); rate 0.0625 kg/ha
  Preemergence herbicidal rating ORYSAT: 0.0
ORYSAT (Rice, Tebonnet); rate 0.1250 kg/ha
  Preemergence herbicidal rating ORYSAT: 0.0
ORYSAT (Rice, Tebonnet); rate 0.2500 kg/ha
  Preemergence herbicidal rating ORYSAT: 0.0
ABUTH (Velvetleaf); Rate 0.0158 kg/ha
  Postemergence herbicidal rating ABUTH: 9.0
ABUTH (Velvetleaf); Rate 0.0315 kg/ha
  Postemergence herbicidal rating ABUTH: 9.0
ABUTH (Velvetleaf); Rate 0.0630 kg/ha
  Postemergence herbicidal rating ABUTH: 9.0
[1]; rate 0.0625 kg/ha
  Preemergence herbicidal rating TRZAWR: 0.0
[1]; rate 0.1250 kg/ha
  Preemergence herbicidal rating TRZAWR: 1.0
[1]; rate 0.2500 kg/ha
  Preemergence herbicidal rating TRZAWR: 3.0
ECHCG (Barnyardgrass); rate 0.0625 kg/ha
  Preemergence herbicidal rating ECHCG: 0.0
ECHCG (Barnyardgrass); rate 0.1250 kg/ha
  Preemergence herbicidal rating ECHCG: 0.0
ECHCG (Barnyardgrass); rate 0.2500 kg/ha
  Preemergence herbicidal rating ECHCG: 0.0
[2]; 0.1250 kg/ha
  Herbicidal rating ECHORC: 3.0
[2]; 0.2500 kg/ha
  Herbicidal rating ECHORC: 6.0
[3]; Rate 0.0158 kg/ha
  Postemergence herbicidal rating TRZAWR: 2.5
[3]; Rate 0.0315 kg/ha
  Postemergence herbicidal rating TRZAWR: 3.0
[3]; Rate 0.0630 kg/ha
  Postemergence herbicidal rating TRZAWR: 3.5
SETVI (Foxtail, Green); rate 0.0625 kg/ha
  Preemergence herbicidal rating SETVI: 0.0
SETVI (Foxtail, Green); rate 0.1250 kg/ha
  Preemergence herbicidal rating SETVI: 0.0
SETVI (Foxtail, Green); rate 0.2500 kg/ha
  Preemergence herbicidal rating SETVI: 9.0
[4]; rate 0.0625 kg/ha
  Preemergence herbicidal rating IPOHE: 0.0
[4]; rate 0.1250 kg/ha
  Preemergence herbicidal rating IPOHE: 3.0
[4]; rate 0.2500 kg/ha
  Preemergence herbicidal rating IPOHE: 9.0
[5]; [8]
  Herbicidal rating ECHORC: 3.0
[5]; [9]
  Herbicidal rating ECHORC: 6.0
[6]; Rate 0.0158 kg/ha
  Postemergence herbicidal rating IPOHE: 9.0
[6]; Rate 0.0315 kg/ha
  Postemergence herbicidal rating IPOHE: 9.0
[6]; Rate 0.0630 kg/ha
  Postemergence herbicidal rating IPOHE: 9.0
CYPIR (Rice Flatsedge); [8]
  Herbicidal rating CYPIR: 0.0
CYPIR (Rice Flatsedge); [9]
  Herbicidal rating CYPIR: 0.0
[7]; rate 0.0625 kg/ha
  Preemergence herbicidal rating CHEAL: 9.0
[7]; rate 0.1250 kg/ha
  Preemergence herbicidal rating CHEAL: 9.0
[7]; rate 0.2500 kg/ha
  Preemergence herbicidal rating CHEAL: 9.0

## Cn1c(C(F)(F)F)cc(=O)n(-c2cc(N=C3SCC(=O)N3C3CCOC3=O)c(Cl)cc2F)c1=O (centres unmarked) [Compound 73]
ORYSAT (Rice, Tebonnet); rate 0.0156 kg/ha
  Preemergence herbicidal rating ORYSAT: 0.0
ORYSAT (Rice, Tebonnet); rate 0.0313 kg/ha
  Preemergence herbicidal rating ORYSAT: 0.0
ORYSAT (Rice, Tebonnet); rate 0.0625 kg/ha
  Preemergence herbicidal rating ORYSAT: 2.0
ORYSAT (Rice, Tebonnet); rate 0.1250 kg/ha
  Preemergence herbicidal rating ORYSAT: 2.0
ORYSAT (Rice, Tebonnet); rate 0.2500 kg/ha
  Preemergence herbicidal rating ORYSAT: 4.0
ABUTH (Velvetleaf); rate 0.0158 kg/ha
  ABUTH herbicidal rating: 9.0
ABUTH (Velvetleaf); rate 0.0315 kg/ha
  ABUTH herbicidal rating: 9.0
ABUTH (Velvetleaf); rate 0.0630 kg/ha
  ABUTH herbicidal rating: 9.0
[1]; rate 0.0156 kg/ha
  Preemergence herbicidal rating TRZAWR: 0.0
[1]; rate 0.0313 kg/ha
  Preemergence herbicidal rating TRZAWR: 0.0
[1]; rate 0.0625 kg/ha
  Preemergence herbicidal rating TRZAWR: 1.0
[1]; rate 0.1250 kg/ha
  Preemergence herbicidal rating TRZAWR: 3.0
[1]; rate 0.2500 kg/ha
  Preemergence herbicidal rating TRZAWR: 4.0
ECHCG (Barnyardgrass); rate 0.0156 kg/ha
  Preemergence herbicidal rating ECHCG: 0.0
ECHCG (Barnyardgrass); rate 0.0313 kg/ha
  Preemergence herbicidal rating ECHCG: 0.0
ECHCG (Barnyardgrass); rate 0.0625 kg/ha
  Preemergence herbicidal rating ECHCG: 0.0
ECHCG (Barnyardgrass); rate 0.1250 kg/ha
  Preemergence herbicidal rating ECHCG: 0.0
ECHCG (Barnyardgrass); rate 0.2500 kg/ha
  Preemergence herbicidal rating ECHCG: 4.0
[2]; 0.1250 kg/ha
  ECHORC herbicidal effect rating: 3.0
[2]; 0.2500 kg/ha
  ECHORC herbicidal effect rating: 7.0
[3]; rate 0.0158 kg/ha
  TRZAWR herbicidal rating: 3.5
[3]; rate 0.0315 kg/ha
  TRZAWR herbicidal rating: 4.0
[3]; rate 0.0630 kg/ha
  TRZAWR herbicidal rating: 5.0
SETVI (Foxtail, Green); rate 0.0156 kg/ha
  Preemergence herbicidal rating SETVI: 0.0
SETVI (Foxtail, Green); rate 0.0313 kg/ha
  Preemergence herbicidal rating SETVI: 1.0
SETVI (Foxtail, Green); rate 0.0625 kg/ha
  Preemergence herbicidal rating SETVI: 0.0
SETVI (Foxtail, Green); rate 0.1250 kg/ha
  Preemergence herbicidal rating SETVI: 9.0
SETVI (Foxtail, Green); rate 0.2500 kg/ha
  Preemergence herbicidal rating SETVI: 9.0
[4]; rate 0.0156 kg/ha
  Preemergence herbicidal rating IPOHE: 0.0
[4]; rate 0.0313 kg/ha
  Preemergence herbicidal rating IPOHE: 1.0
[4]; rate 0.0625 kg/ha
  Preemergence herbicidal rating IPOHE: 0.0
[4]; rate 0.1250 kg/ha
  Preemergence herbicidal rating IPOHE: 1.0
[4]; rate 0.2500 kg/ha
  Preemergence herbicidal rating IPOHE: 7.0
[5]; [10]
  Herbicidal rating ECHORC: 3.0
[5]; [11]
  Herbicidal rating ECHORC: 7.0
[6]; rate 0.0158 kg/ha
  IPOHE herbicidal rating: 9.0
[6]; rate 0.0315 kg/ha
  IPOHE herbicidal rating: 9.0
[6]; rate 0.0630 kg/ha
  IPOHE herbicidal rating: 9.0
CYPIR (Rice Flatsedge); [10]
  Herbicidal rating CYPIR: 0.0
CYPIR (Rice Flatsedge); [11]
  Herbicidal rating CYPIR: 6.0
[7]; rate 0.0156 kg/ha
  Preemergence herbicidal rating CHEAL: 9.0
[7]; rate 0.0313 kg/ha
  Preemergence herbicidal rating CHEAL: 9.0
[7]; rate 0.0625 kg/ha
  Preemergence herbicidal rating CHEAL: 9.0
[7]; rate 0.1250 kg/ha
  Preemergence herbicidal rating CHEAL: 9.0
[7]; rate 0.2500 kg/ha
  Preemergence herbicidal rating CHEAL: 9.0

## COC(=O)C1(N2C(=O)CSC2=Nc2cc(-n3c(=O)cc(C(F)(F)F)n(C)c3=O)c(F)cc2Cl)CCCCC1 [Compound 81, Methyl 1-{2-{{2-chloro-5-[3,6-dihydro-3-methyl-2,6-dioxo-4-(trifluoromethyl)-1(2H)-pyrimidinyl]-4-fluorophenyl}imino}-4-oxo-3-thiazolidinyl}-cyclohexanecarboxylate]
ORYSAT (Rice, Tebonnet); 0.0313 kg/ha
  ORYSAT rating: 0.0
ORYSAT (Rice, Tebonnet); 0.0625 kg/ha
  ORYSAT rating: 0.0
ORYSAT (Rice, Tebonnet); 0.1250 kg/ha
  ORYSAT rating: 1.0
ORYSAT (Rice, Tebonnet); 0.2500 kg/ha
  ORYSAT rating: 1.0
ABUTH (Velvetleaf); rate 0.0158 kg/ha
  ABUTH herbicidal rating: 7.0
ABUTH (Velvetleaf); rate 0.0315 kg/ha
  ABUTH herbicidal rating: 7.0
ABUTH (Velvetleaf); rate 0.0630 kg/ha
  ABUTH herbicidal rating: 9.0
[1]; 0.0313 kg/ha
  TRZAWR rating: 0.0
[1]; 0.0625 kg/ha
  TRZAWR rating: 0.0
[1]; 0.1250 kg/ha
  TRZAWR rating: 1.0
[1]; 0.2500 kg/ha
  TRZAWR rating: 1.0
ECHCG (Barnyardgrass); 0.0313 kg/ha
  ECHCG rating: 0.0
ECHCG (Barnyardgrass); 0.0625 kg/ha
  ECHCG rating: 0.0
ECHCG (Barnyardgrass); 0.1250 kg/ha
  ECHCG rating: 0.0
ECHCG (Barnyardgrass); 0.2500 kg/ha
  ECHCG rating: 1.0
[2]; 0.0625 kg/ha
  ECHORC herbicidal effect rating: 0.0
[2]; 0.1250 kg/ha
  ECHORC herbicidal effect rating: 3.0
[2]; 0.2500 kg/ha
  ECHORC herbicidal effect rating: 3.0
[3]; rate 0.0158 kg/ha
  TRZAWR herbicidal rating: 4.5
[3]; rate 0.0315 kg/ha
  TRZAWR herbicidal rating: 5.0
[3]; rate 0.0630 kg/ha
  TRZAWR herbicidal rating: 6.0
SETVI (Foxtail, Green); 0.0313 kg/ha
  SETVI rating: 0.0
SETVI (Foxtail, Green); 0.0625 kg/ha
  SETVI rating: 1.0
SETVI (Foxtail, Green); 0.1250 kg/ha
  SETVI rating: 0.0
SETVI (Foxtail, Green); 0.2500 kg/ha
  SETVI rating: 3.0
[4]; 0.0313 kg/ha
  IPOHE rating: 0.0
[4]; 0.1250 kg/ha
  IPOHE rating: 1.0
[4]; 0.2500 kg/ha
  IPOHE rating: 9.0
[5]; [12]
  Herbicidal rating ECHORC: 0.0
[5]; [10]
  Herbicidal rating ECHORC: 3.0
[5]; [11]
  Herbicidal rating ECHORC: 3.0
[6]; rate 0.0158 kg/ha
  IPOHE herbicidal rating: 9.0
[6]; rate 0.0315 kg/ha
  IPOHE herbicidal rating: 9.0
[6]; rate 0.0630 kg/ha
  IPOHE herbicidal rating: 9.0
CYPIR (Rice Flatsedge); [12]
  Herbicidal rating CYPIR: 4.0
CYPIR (Rice Flatsedge); [10]
  Herbicidal rating CYPIR: 5.0
CYPIR (Rice Flatsedge); [11]
  Herbicidal rating CYPIR: 5.0
[7]; 0.0313 kg/ha
  CHEAL rating: 7.0
[7]; 0.0625 kg/ha
  CHEAL rating: 9.0
[7]; 0.1250 kg/ha
  CHEAL rating: 9.0
[7]; 0.2500 kg/ha
  CHEAL rating: 9.0
